Measured values taken from ChEMBL document CHEMBL1152245 (Bioorg Med Chem Lett, 2008).
Active and inactive are the calls of the source. The calls are words filed in the database; no cut-off is given here.

What was measured:
Format in all cases: functional
[1] = biological target: T1, Muscarinic acetylcholine receptor M1 (Homo sapiens, UniProt P11229); experiment: Agonist activity at muscarinic M1 receptor
T1 sequence (P11229 whole entry): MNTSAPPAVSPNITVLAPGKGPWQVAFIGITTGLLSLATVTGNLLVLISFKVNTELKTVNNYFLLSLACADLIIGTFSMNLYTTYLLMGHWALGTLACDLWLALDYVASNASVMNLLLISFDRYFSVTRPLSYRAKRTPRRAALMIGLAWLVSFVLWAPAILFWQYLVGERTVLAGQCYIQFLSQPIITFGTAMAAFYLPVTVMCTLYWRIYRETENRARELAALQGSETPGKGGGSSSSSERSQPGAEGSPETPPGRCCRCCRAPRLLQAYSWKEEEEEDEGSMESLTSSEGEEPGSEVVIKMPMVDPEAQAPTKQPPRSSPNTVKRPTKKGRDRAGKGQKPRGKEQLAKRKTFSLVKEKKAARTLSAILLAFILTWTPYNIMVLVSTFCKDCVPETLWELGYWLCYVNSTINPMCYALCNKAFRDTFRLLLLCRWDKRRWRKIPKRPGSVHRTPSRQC

[2] = biological target: T2, Muscarinic acetylcholine receptor M1 (Homo sapiens) (UniProt P11229); experiment: Agonist activity at muscarinic M1 receptor relative to carbachol
T2 sequence (whole entry): T1 sequence (P11229 whole entry)

[3] = biological target: T3, Muscarinic acetylcholine receptor M2 (Homo sapiens) (UniProt P08172); experiment: Agonist activity at muscarinic M2 receptor at up to 30 uM
T3 sequence (whole entry): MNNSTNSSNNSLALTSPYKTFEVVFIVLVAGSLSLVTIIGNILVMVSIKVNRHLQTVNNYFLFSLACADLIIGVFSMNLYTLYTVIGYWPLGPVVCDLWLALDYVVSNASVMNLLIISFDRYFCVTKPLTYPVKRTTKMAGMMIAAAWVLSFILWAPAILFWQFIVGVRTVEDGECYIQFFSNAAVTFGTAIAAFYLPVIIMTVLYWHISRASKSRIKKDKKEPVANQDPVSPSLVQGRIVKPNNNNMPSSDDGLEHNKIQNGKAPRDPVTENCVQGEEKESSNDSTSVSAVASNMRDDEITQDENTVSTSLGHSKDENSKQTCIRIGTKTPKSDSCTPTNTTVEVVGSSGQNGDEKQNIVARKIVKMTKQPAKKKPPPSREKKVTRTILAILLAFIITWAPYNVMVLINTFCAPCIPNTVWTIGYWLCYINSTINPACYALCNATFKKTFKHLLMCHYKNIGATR

[4] = biological target: T4, Muscarinic acetylcholine receptor M3 (Homo sapiens, UniProt P20309); experiment: Agonist activity at muscarinic M3 receptor at up to 30 uM
Target sequence in this assay (P20309 whole entry, looked up): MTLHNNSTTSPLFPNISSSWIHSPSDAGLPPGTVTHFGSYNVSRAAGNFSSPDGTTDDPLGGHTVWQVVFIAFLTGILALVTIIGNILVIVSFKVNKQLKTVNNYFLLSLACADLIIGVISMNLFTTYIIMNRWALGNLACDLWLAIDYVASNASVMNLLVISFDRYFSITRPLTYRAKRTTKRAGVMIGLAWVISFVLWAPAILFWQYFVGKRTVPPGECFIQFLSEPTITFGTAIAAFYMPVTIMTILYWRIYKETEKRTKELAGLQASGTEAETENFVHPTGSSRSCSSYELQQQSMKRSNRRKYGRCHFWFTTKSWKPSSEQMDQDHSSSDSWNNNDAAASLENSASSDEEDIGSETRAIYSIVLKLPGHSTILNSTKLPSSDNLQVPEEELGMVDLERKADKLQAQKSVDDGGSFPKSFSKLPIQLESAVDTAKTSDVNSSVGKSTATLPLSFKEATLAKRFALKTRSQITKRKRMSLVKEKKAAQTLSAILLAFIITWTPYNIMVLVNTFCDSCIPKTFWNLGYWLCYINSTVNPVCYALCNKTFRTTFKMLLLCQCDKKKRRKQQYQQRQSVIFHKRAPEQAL

[5] = biological target: T5, Muscarinic acetylcholine receptor M4 (Homo sapiens) (UniProt P08173); experiment: Agonist activity at muscarinic M4 receptor at up to 30 uM
T5 sequence (whole entry): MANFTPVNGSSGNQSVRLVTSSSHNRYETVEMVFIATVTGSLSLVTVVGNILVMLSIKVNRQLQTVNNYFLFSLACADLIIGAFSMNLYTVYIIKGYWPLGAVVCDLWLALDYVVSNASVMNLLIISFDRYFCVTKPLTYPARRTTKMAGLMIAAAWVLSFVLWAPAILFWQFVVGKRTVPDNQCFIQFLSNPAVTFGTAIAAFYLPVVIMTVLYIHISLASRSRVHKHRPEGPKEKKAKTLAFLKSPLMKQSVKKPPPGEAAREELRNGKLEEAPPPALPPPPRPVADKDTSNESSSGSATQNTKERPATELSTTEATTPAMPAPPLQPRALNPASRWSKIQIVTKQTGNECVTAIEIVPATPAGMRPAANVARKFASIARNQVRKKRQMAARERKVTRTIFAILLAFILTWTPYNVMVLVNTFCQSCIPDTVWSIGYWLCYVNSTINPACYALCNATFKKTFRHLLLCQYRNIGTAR

[6] = biological target: T6, Muscarinic acetylcholine receptor M5 (Homo sapiens) (UniProt P08912); experiment: Agonist activity at muscarinic M5 receptor at up to 30 uM
T6 sequence (whole entry): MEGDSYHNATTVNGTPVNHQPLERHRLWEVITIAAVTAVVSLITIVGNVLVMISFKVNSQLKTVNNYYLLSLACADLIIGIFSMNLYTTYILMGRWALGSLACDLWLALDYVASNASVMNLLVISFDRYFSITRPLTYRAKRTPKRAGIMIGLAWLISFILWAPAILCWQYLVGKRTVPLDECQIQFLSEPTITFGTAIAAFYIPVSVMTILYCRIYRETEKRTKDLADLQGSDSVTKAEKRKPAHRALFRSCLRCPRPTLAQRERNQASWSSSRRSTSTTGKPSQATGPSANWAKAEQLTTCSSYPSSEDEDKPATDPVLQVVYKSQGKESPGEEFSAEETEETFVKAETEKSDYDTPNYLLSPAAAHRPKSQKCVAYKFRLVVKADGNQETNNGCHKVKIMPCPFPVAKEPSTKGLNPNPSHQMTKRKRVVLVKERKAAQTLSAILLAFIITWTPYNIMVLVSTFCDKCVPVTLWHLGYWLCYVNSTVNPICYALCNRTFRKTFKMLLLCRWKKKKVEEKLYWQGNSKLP

[7] = biological target: T7, Muscarinic acetylcholine receptor M2 (Homo sapiens, UniProt P08172); experiment: Agonist activity at muscarinic M2 receptor
T7 sequence (P08172 whole entry): T3 sequence (whole entry)

[8] = biological target: T4, Muscarinic acetylcholine receptor M3; experiment: Agonist activity at muscarinic M3 receptor
Target sequence in this assay (P20309 whole entry): as the sequence (P20309 whole entry, looked up) above

[9] = biological target: T8, Muscarinic acetylcholine receptor M4 (Homo sapiens, UniProt P08173); experiment: Agonist activity at muscarinic M4 receptor
T8 sequence (P08173 whole entry): T5 sequence (whole entry)

[10] = biological target: T9, Muscarinic acetylcholine receptor M5 (Homo sapiens, UniProt P08912); experiment: Agonist activity at muscarinic M5 receptor
T9 sequence (P08912 whole entry): T6 sequence (whole entry)

D(2) dopamine receptor = D(2) dopamine receptor (Homo sapiens, UniProt P14416); experiment: Antagonist activity at dopamine D2 receptor
[11] = biological target: T3, Muscarinic acetylcholine receptor M2 (Homo sapiens); experiment: Agonist activity at muscarinic M2 receptor relative to carbachol
[12] = biological target: T5, Muscarinic acetylcholine receptor M4 (Homo sapiens); experiment: Agonist activity at muscarinic M4 receptor relative to carbachol
[13] = biological target: T6, Muscarinic acetylcholine receptor M5 (Homo sapiens); experiment: Agonist activity at muscarinic M5 receptor relative to carbachol

Sequence of D(2) dopamine receptor (P14416 whole entry): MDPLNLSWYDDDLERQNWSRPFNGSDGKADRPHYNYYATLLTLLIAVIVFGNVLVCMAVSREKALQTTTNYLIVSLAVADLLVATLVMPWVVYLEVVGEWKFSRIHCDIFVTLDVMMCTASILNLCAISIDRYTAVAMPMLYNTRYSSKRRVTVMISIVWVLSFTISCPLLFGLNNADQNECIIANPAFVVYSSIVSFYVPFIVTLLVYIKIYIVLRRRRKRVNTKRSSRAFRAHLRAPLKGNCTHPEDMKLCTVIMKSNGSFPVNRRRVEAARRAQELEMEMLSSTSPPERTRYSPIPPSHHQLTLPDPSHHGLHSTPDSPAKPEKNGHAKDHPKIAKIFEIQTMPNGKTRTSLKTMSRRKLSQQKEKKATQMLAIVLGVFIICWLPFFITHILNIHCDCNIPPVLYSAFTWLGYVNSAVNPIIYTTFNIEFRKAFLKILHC

Row | SMILES | EC50 [1] [µM] | Activity [2] [%] | Activity [3] | Activity [4] | Activity [5] | Activity [6] | EC50 [7] [µM] | EC50 [8] [µM] | EC50 [9] [µM] | EC50 [10] [µM] | IC50 (D(2) dopamine receptor) [µM] | Activity [11] [%] | Activity [12] [%] | Activity [13] [%]
1 | Cc1ccccc1C(=O)N1CCC(N2CCC(n3c(=O)[nH]c4ccccc43)CC2)CC1 | 0.88 | 60 | inactive | inactive | inactive | inactive |  |  |  |  |  |  |  | 
2 | Cc1ccccc1C(=O)N1CCC(N2CCC(n3c(=O)[nH]c4cc(Cl)ccc43)CC2)CC1 | 2.71 | 56 | inactive | inactive | inactive | inactive |  |  |  |  |  |  |  | 
3 | O=c1[nH]c2cc(Br)ccc2n1C1CCN(C2CCN(S(=O)(=O)c3ccccc3)CC2)CC1 | 4.4 | 81 |  |  |  |  | > 30 | > 30 | > 30 |  |  |  |  | 
4 | O=c1[nH]c2ccc(F)cc2n1C1CCN(C2CCN(S(=O)(=O)c3ccccc3)CC2)CC1 | 3.3 | 76 |  |  |  |  | > 30 | > 30 | > 30 | > 30 | > 10 |  |  | 
5 | O=C(c1ccccc1C(F)(F)F)N1CCC(N2CCC(n3c(=O)[nH]c4cc(Cl)ccc43)CC2)CC1 | 11.1 | 24 | inactive | inactive | inactive | inactive |  |  |  |  |  |  |  | 
6 | O=C(Nc1cccc(SC(F)(F)F)c1)N1CCC(N2CCC(n3c(=O)[nH]c4ccc(F)cc43)CC2)CC1 | 9.6 | 72 |  |  |  |  | > 30 | > 30 | > 30 |  |  |  |  | 
7 | O=C(Nc1cccc(SC(F)(F)F)c1)N1CCC(N2CCC(n3c(=O)[nH]c4ccccc43)CC2)CC1 | 6.5 | 85 |  |  |  |  | > 30 | > 30 | > 30 |  |  |  |  | 
8 | O=c1[nH]c2ccccc2n1C1CCN(C2CCN(S(=O)(=O)c3ccccc3)CC2)CC1 | 1.4 | 82 |  |  |  |  |  |  |  |  |  |  |  | 
9 | O=c1[nH]c2cc(F)ccc2n1C1CCN(C2CCN(S(=O)(=O)c3ccccc3)CC2)CC1 | 2.3 | 82 |  |  |  |  | > 30 | > 30 | > 30 | > 30 | 3.6 |  |  | 
10 | Cc1ccccc1CN1CCC(N2CCC(n3c(=O)[nH]c4ccccc43)CC2)CC1 |  |  |  |  |  |  |  |  |  |  | 5.1 |  |  | 
11 | O=c1[nH]c2c(F)cccc2n1C1CCN(C2CCN(S(=O)(=O)c3ccccc3)CC2)CC1 | 2.6 | 49 |  |  |  |  | > 30 | > 30 | > 30 |  |  |  |  | 
12 | O=C(c1ccccc1C(F)(F)F)N1CCC(N2CCC(n3c(=O)[nH]c4ccccc43)CC2)CC1 | 0.91 | 32 | inactive | inactive | inactive | inactive |  |  |  |  |  |  |  | 
13 | O=C(c1cccc(Cl)c1)N1CCC(N2CCC(n3c(=O)[nH]c4ccccc43)CC2)CC1 | 0.93 | 21 | inactive | inactive | inactive | inactive |  |  |  |  |  |  |  | 
14 | O=C(Nc1cccc(SC(F)(F)F)c1)N1CCC(N2CCC(n3c(=O)[nH]c4c(F)cccc43)CC2)CC1 | > 10 | 46 |  |  |  |  | > 30 | > 30 | > 30 |  |  |  |  | 
15 | Cc1cccc(C(=O)N2CCC(N3CCC(n4c(=O)[nH]c5cc(Cl)ccc54)CC3)CC2)c1 | 2.11 | 50 | inactive | inactive | inactive | inactive |  |  |  |  |  |  |  | 
16 | O=C(Nc1cccc(SC(F)(F)F)c1)N1CCC(N2CCC(n3c(=O)[nH]c4cc(Cl)ccc43)CC2)CC1 | 3.6 | 90 |  |  |  |  | > 30 | > 30 | > 30 |  |  |  |  | 
17 | Cc1cccc(C(=O)N2CCC(N3CCC(n4c(=O)[nH]c5ccccc54)CC3)CC2)c1 | 0.51 | 53 | inactive | inactive | inactive | inactive |  |  |  |  |  |  |  | 
18 | O=C(c1cccc(Cl)c1)N1CCC(N2CCC(n3c(=O)[nH]c4cc(Cl)ccc43)CC2)CC1 | 7.11 | 21 | inactive | inactive | inactive | inactive |  |  |  |  |  |  |  | 
19 | O=c1[nH]c2ccccc2n1C1CCN(C2CCN(Cc3ccccc3C(F)(F)F)CC2)CC1 |  | 80 |  |  |  |  |  |  |  |  |  |  |  | 
20 | NC(=O)OCCN1CCC(N2CCC(n3c(=O)[nH]c4ccccc43)CC2)CC1 |  |  |  |  |  |  | 0.0119 |  | 0.0091 | 0.0343 |  | 80.6 | 96.9 | 50.8
21 | O=c1[nH]c2cc(Cl)ccc2n1C1CCN(C2CCN(S(=O)(=O)c3ccccc3)CC2)CC1 | 4.1 | 82 |  |  |  |  | > 30 | > 30 | > 30 |  |  |  |  | 
